According to patent publication US3975433A, “1-(2,4-Dimethoxy-phenyl)-3-(2-hydroxyethyl)thiourea” (The Dow Chemical Company, priority 1975, dated 1976):

Key:
Ascaridia galli = test: control of Ascaridia galli in chickens (anthelmintic efficacy); type: in vivo; settings: infected chickens; for activity in controlling Ascaridia: tested as controls, result in words, dose not separately stated
Experimental: The compound was evaluated for activity in the control of Ascaridia galli in chickens. The test chickens following infection with Ascaridia are held for at least 30 days to permit all worms to mature. The compound is evaluated for activity in two chickens which are caged together. The compound may be administered orally as a single oral dose or in the feed for four consecutive days. Anthelmintic efficacy of the compound against Ascaridia is determined by comparing the number of ascarids passed in the feces during the first 72 hours post treatment to the number of worms recovered at necropsy.
The following compounds were also tested as controls and found to have no activity in controlling Ascaridia: 1-(4-methoxyphenyl)-3-(2-hydroxyethyl)thiourea; 1-(2,4-dimethylphenyl)-3-(2-hydroxyethyl)thiourea; 1-(4-methylphenyl)-3-(2-hydroxyethyl)thiourea; and 1-(4-methoxy-2-methylphenyl)-3-(2-hydroxyethyl)thiourea.

reserpine-induced ptosis = test: counteraction of reserpine-induced ptosis in mice (antidepressant properties); type: in vivo; settings: for inhibition of reserpine-induced ptosis: mice, 60 mg/kg (i.p.), comparative trials, result in words
Experimental: The antidepressant properties of the thiourea employed in the methods of the present invention are determined by measuring their ability to counteract ptosis induced in animals by the intraperitoneal injection of reserpine. Graded doses (from about 2.1 to about 100 mg/kg) of the active compounds of this invention are administered intraperitoneally to groups of five mice each, followed 30 minutes later by an intraperitoneal injection of reserpine in an amont which is known to induce ptosis in mice. Similar groups of control mice are administered only reserpine. Forty-five minutes after the administration of reserpine, the presence or absence of ptosis is noted. The percent inhibition of ptosis is noted and the median effective dose (ED50) of each test ingredient which protected 50% of the test mice from reserpine-induced ptosis was calculated.

SMILES | activity in controlling Ascaridia (Ascaridia galli) | other results
Cc1ccc(NC(=S)NCCO)c(C)c1 [1-(2,4-dimethylphenyl)-3-(2-hydroxyethyl)thiourea] | no activity | –
COc1ccccc1NC(=S)NCCO [1-(2-methoxyphenyl)-3-(2-hydroxyethyl)thiourea] | – | inhibition of reserpine-induced ptosis (reserpine-induced ptosis): did not inhibit
COc1ccc(NC(=S)NCCO)cc1OC [1-(3,4-dimethoxyphenyl)-3-(2-hydroxyethyl)thiourea] | – | inhibition of reserpine-induced ptosis (reserpine-induced ptosis): did not inhibit
COc1ccc(NC(=S)NCCO)c(C)c1 [1-(4-methoxy-2-methylphenyl)-3-(2-hydroxyethyl)thiourea] | no activity | –
COc1ccc(NC(=S)NCCO)cc1 [1-(4-methoxyphenyl)-3-(2-hydroxyethyl)thiourea] | no activity | –
Cc1ccc(NC(=S)NCCO)cc1 [1-(4-methylphenyl)-3-(2-hydroxyethyl)thiourea] | no activity | –
COc1ccc(NC(=S)NCCO)c(OC)c1 [Compound 1, 1-(2,4-dimethoxyphenyl)-3-(2-hydroxyethyl)thiourea] | – | activity (number of worms passed in the feces compared to those found at autopsy) (Ascaridia galli; 150 mg/kg, feces during first 72 hours post treatment): 50%
CN(C)CCCN1c2ccccc2CCc2ccccc21 [Imipramine] | – | ED50 (reserpine-induced ptosis; Mus musculus, ip, read-out: ED50 (median effective dose which protected 50% of the test mice from reserpine-induced ptosis)): 15 mg/kg
